Measured values reported in paper PMC12203525, “The insight into the biology of five homologous lectins produced by the entomopathogenic bacterium and nematode symbiont Photorhabdus laumondii” (Glycobiology, 2025).
Like-named read-outs stand apart in the source and are kept apart here.

How the values were obtained:
PLL4 [1] = target: T1, PLL4 (Photorhabdus laumondii subsp. laumondii, UniProt Q7N8I6); assay: Glycan microarray screening (634 saccharide ligands); format: binding, Photorhabdus laumondii subsp. laumondii TT01; conditions: DyLight488-labelled PLL4, 200 μg/mL
Method: Lectins were fluorescently labelled with DyLight 488 according to the manufacturer’s instructions and the unbound dye was extensively dialyzed out of the protein solution. The microarray chip (Semiotik LLC, Moscow, Russia, batch OSPS280715) containing 634 saccharide ligands, each in 6 replicates, was treated with PBS (137 mM NaCl, 2.7 mM KCl, 8 mM Na2HPO4, […], pH 7.4) with added 0.1% Tween-20 for 15 min. The labelled proteins (200 μg/mL) were then separately applied to the chip surface and incubated in a humidity chamber at 37 °C for 1 h. After the incubation, the unbound protein was washed out with PBS containing 0.05% Tween-20 and deionized water. The chip was dried by airflow and scanned using an InnoScan1100 AL (Innopsys, Carbonne, France) with a 488 nm laser. The data were analyzed with the software Mapix 8.2.2 and an online glycan chip converter (Semiotic, https://rakitko.shinyapps.io/semiotik).

PLL2 [2] = target: PLL2; parameters: method as in Fujdiarová et al, 2021, Faltinek et al, 2019; conditions: ref Fujdiarová et al, 2021, Faltinek et al, 2019, cited from earlier work; for Kd: ITC; for interaction with the sugar in ITC (in words): PLL2
PLL3 [3] = target: PLL3; parameters: method as in Fujdiarová et al, 2021, Faltinek et al, 2019; conditions: ref Fujdiarová et al, 2021, Faltinek et al, 2019, cited from earlier work; for Kd: ITC; for interaction with the sugar in ITC (in words): PLL3
PLL [4] = target: T2, PLL (Photorhabdus laumondii subsp. laumondii, UniProt Q7N8J0); assay: Isothermal titration calorimetry (ITC); format: binding, Photorhabdus laumondii subsp. laumondii TT01
Method: (§1) ITC experiments were performed using an Auto-ITC200 calorimeter or Automated PEAQ-ITC calorimeter (both Malvern Panalytical, Malvern, UK). Measurements were carried out at 25 °C in the Tris buffer. Before the analyses, lectins were extensively dialyzed against the Tris buffer and the dialysate was used to dissolve ligands. The protein (0.1 mM or 0.2 mM) in the cell was titrated with 2 μL injections of the ligand (20 mM or 40 mM). […] Experiments for each interacting ligand were carried out in triplicates. Integrated heat effects were evaluated by nonlinear regression using a single-site binding model in Origin 7 (OriginLab, Northampton, USA) ([Wiseman et al. 1989]). Triplicate measurements were fitted simultaneously using a global fit approach. Due to the low affinity of the interaction, the binding stoichiometry was fixed during the fitting.

PLL5 [5] = target: T3, PLL5 (Photorhabdus laumondii subsp. laumondii, UniProt Q7N8I5); assay: Isothermal titration calorimetry (ITC); format: binding, Photorhabdus laumondii subsp. laumondii TT01; conditions: for KD / Kd: ITC; for interaction with the sugar in ITC (in words): PLL5
Method: as §1

PLL4 [6] = target: T1, PLL4; assay: Isothermal titration calorimetry (ITC); format: binding, Photorhabdus laumondii subsp. laumondii TT01; conditions: for KD / Kd: ITC; for interaction with the sugar in ITC (in words): PLL4
Method: as §1

PLL [7] = target: T2, PLL; assay: SPR inhibition assay on the MGMR channel; parameters: species or system Photorhabdus laumondii subsp. laumondii TT01; conditions: inhibition of PLL (250 nM) binding to immobilized MGMR
Method: (§2) SPR experiments were carried out on BIAcore T200 or BIAcore S200 instruments (GE Healthcare, UK). Sugar moieties were immobilized on the chip surface using the standard procedures according to the manufacturer’s instructions. Measurements with immobilized MGMR were performed on the chip prepared previously (high-density chip) ([Fujdiarová et al. 2021]). Measurements with immobilized α-L-fucose were performed on the streptavidin chip (GE Healthcare, UK). Biotinylated α-L-fucose was immobilized on channel 2 to yield a final response of 29 RU, unmodified channel 1 was used as a control.
(§3) Measurements were performed in Tris buffer with the addition of 0.05% Tween 20 at a flow rate of 30 μl/min at 25 °C. […] 50 mM NaOH for 30 s (flow 30 μl/min) was used for chip regeneration. To determine KDs (app) towards MGMR, 2-fold dilution series of lectins was used (PLL: 0.048 – 50 μM, PLL4: 0.008 - 2 μM; PLL5: 1.9 – 500 nM). The data were evaluated with the BIAcore T200 or BIAcore S200 evaluation software using a steady state approach. To determine KD(app) towards α-L-fucose, 2-fold dilution series of lectins was used (PLL: 1.25 – 20 μM, PLL4: 0.39 – 12.5 μM; PLL5: 0.12 – 30 μM). The data were evaluated with the BIAcore T200 or BIAcore S200 evaluation software using a steady state approach (PLL5) or a single-cycle kinetics approach (PLL, PLL4). For SPR inhibition experiments on the MGMR channel, 250 nM PLL, 250 nM PLL4 or 62 nM PLL5, respectively, was used. Proteins of the given concentration were mixed with a concentration series of tested inhibitors (0.01 - 0.4 M). Proteins without an inhibitor were used as a control. The response of the lectin bound to the sugar surface at equilibrium was plotted against the concentration of inhibitor in order to determine IC50. The response in the appropriate blank channel was subtracted prior to all evaluations.

PLL5 [8] = target: T3, PLL5; assay: SPR inhibition assay on the MGMR channel; parameters: species or system Photorhabdus laumondii subsp. laumondii TT01; conditions: inhibition of PLL5 (62 nM) binding to immobilized MGMR
Method: as §2, §3

PLL4 [9] = target: T1, PLL4; assay: SPR inhibition assay on the MGMR channel; parameters: species or system Photorhabdus laumondii subsp. laumondii TT01; conditions: inhibition of PLL4 (250 nM) binding to immobilized MGMR
Method: as §2, §3

PLL2 [10] = system: PLL2; parameters: method as in Faltinek et al. 2019; Fujdiarová et al. 2021; conditions: inhibition of PLL2 binding to immobilized MGMR, ref Faltinek et al. 2019, Fujdiarová et al. 2021, cited from earlier work
PLL3 [11] = system: PLL3; parameters: method as in Faltinek et al. 2019; Fujdiarová et al. 2021; conditions: inhibition of PLL3 binding to immobilized MGMR, ref Faltinek et al. 2019, Fujdiarová et al. 2021, cited from earlier work
[12] = PLL2, stoichiometry N fixed to 4
[13] = PLL3, stoichiometry N fixed to 2
[14] = PLL3, stoichiometry N fixed to 4
[15] = PLL3, stoichiometry N fixed to 6
[16] = PLL3, stoichiometry N fixed to 8
[17] = ITC, stoichiometry N fixed to 2
[18] = ITC, stoichiometry N fixed to 4
[19] = ITC, stoichiometry N fixed to 6
[20] = ITC, stoichiometry N fixed to 8
[21] = PLL5, stoichiometry N fixed to 2
[22] = PLL5, stoichiometry N fixed to 4
[23] = PLL5, stoichiometry N fixed to 6
[24] = PLL5, stoichiometry N fixed to 8
[25] = PLL4, stoichiometry N fixed to 2
[26] = PLL4, stoichiometry N fixed to 4
[27] = PLL4, stoichiometry N fixed to 6
[28] = PLL4, stoichiometry N fixed to 8
[29] = PLL2, stoichiometry N fixed to 8
[30] = PLL2, stoichiometry N fixed to 2
[31] = PLL2, stoichiometry N fixed to 6

T2 sequence (Q7N8J0 entry or part of it): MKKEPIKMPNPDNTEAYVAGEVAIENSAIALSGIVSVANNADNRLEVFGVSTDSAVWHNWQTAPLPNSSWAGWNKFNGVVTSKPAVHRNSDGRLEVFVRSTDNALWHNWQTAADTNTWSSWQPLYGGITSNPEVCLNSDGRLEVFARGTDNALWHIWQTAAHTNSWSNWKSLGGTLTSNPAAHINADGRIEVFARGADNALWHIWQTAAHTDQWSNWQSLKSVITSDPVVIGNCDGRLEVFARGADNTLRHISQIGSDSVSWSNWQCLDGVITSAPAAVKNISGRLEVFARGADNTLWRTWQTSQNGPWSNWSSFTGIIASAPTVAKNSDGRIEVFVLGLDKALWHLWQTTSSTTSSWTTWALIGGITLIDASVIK
T3 sequence (Q7N8I5 entry or part of it): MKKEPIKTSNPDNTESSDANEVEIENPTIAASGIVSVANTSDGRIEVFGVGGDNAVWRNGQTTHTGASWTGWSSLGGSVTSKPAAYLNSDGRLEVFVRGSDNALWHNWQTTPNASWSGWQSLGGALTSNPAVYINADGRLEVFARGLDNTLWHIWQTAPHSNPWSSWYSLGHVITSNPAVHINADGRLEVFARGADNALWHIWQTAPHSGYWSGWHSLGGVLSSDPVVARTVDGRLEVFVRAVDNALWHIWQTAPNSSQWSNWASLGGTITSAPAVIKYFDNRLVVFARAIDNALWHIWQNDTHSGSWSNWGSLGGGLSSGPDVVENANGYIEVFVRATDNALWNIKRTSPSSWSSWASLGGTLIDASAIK
T1 sequence (Q7N8I6 entry or part of it): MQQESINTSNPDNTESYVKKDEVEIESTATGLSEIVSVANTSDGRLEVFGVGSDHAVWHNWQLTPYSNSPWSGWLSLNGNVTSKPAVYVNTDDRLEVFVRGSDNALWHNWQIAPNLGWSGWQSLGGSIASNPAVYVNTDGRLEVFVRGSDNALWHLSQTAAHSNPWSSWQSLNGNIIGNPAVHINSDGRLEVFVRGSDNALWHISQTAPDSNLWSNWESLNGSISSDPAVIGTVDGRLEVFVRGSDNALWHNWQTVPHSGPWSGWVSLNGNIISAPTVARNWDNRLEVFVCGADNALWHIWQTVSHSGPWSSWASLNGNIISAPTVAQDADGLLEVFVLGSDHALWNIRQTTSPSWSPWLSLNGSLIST

Row | Structure (SMILES) | Kd (PLL2 [2]; [12]) [mM] | interaction with the sugar in ITC (in words) (PLL2 [2]) | Kd (PLL3 [3]; [13]) [mM] | Kd (PLL3 [3]; [14]) [mM] | Kd (PLL3 [3]; [15]) [mM] | Kd (PLL3 [3]; [16]) [mM] | interaction with the sugar in ITC (in words) (PLL3 [3]) | interaction with the sugar in ITC (in words) (PLL [4]) | KD (PLL [4]; [17]) | KD (PLL [4]; [18]) | KD (PLL [4]; [19]) | KD (PLL [4]; [20]) | KD (PLL5 [5]; [21]) | KD (PLL5 [5]; [22]) | KD (PLL5 [5]; [23]) | KD (PLL5 [5]; [24]) | interaction with the sugar in ITC (in words) (PLL5 [5]) | KD (PLL4 [6]; [25]) | KD (PLL4 [6]; [26]) | IC50 (PLL2 [10]; read-out: IC50) [mM] | other results
1 | CC(=O)N[C@@H]1[C@@H](O)[C@H](O[C@@H]2O[C@H](CO)[C@H](O)[C@H](O)[C@H]2O[C@@H]2O[C@H](C)[C@H](O)[C@H](O)[C@H]2O)[C@@H](CO)O[C@H]1O [D-Fucβ1-2-D-Galβ1-4-D-GlcNAcβ] |  |  |  |  |  |  |  |  |  |  |  |  |  |  |  |  |  |  |  |  | glycan array binding (in words) (PLL4 [1]): recognized
2 | OC[C@H]1OC(O)[C@H](O)[C@@H](O)[C@@H]1O (stereo partly drawn) [D-Glc] | 3.6 ± 0.21 | interacted | 4 ± 0.12 | 3.6 ± 0.08 | 3.3 ± 0.07 | 3.1 ± 0.11 | interacted | did not bind these sugars significantly | No int | No int | No int | No int | No int | No int | No int | No int | did not bind these sugars significantly | No int | No int |  | KD (PLL4 [6]; [27]): No int; KD (PLL4 [6]; [28]): No int; interaction with the sugar in ITC (in words) (PLL4 [6]): did not bind these sugars significantly
3 | CO[C@@H]([C@H](O)[C@H](O)CO)[C@@H](O)C=O [3OMG, 3-O-methyl-D-glucose] |  | interacted | 11.5 ± 1.55 | 11.1 ± 1.5 | 10.7 ± 1.5 | 10.2 ± 0.62 | interacted | did not bind these sugars significantly | No int | No int | No int | No int | No int | No int | No int | No int | did not bind these sugars significantly | No int | No int | 5.2 ± 0.91 | IC50 (PLL [7]): 48.1 ± 14.9 mM; IC50 (PLL5 [8]): 16.9 ± 2.69 mM; IC50 (PLL4 [9]): 13.1 ± 0.84 mM; Kd (PLL2 [2]; [29]): 11.2 ± 0.8 mM; IC50 (PLL3 [11]; read-out: IC50): 26.4 ± 2.84 mM; KD (PLL4 [6]; [27]): No int; KD (PLL4 [6]; [28]): No int; interaction with the sugar in ITC (in words) (PLL4 [6]): did not bind these sugars significantly
4 | CO[C@@H]1O[C@@H](C)[C@@H](O)[C@@H](O)[C@@H]1O [αMeFuc, methyl-α-L-fucoside] | 0.4 ± 0.02 |  |  | 0.7 ± 0.03 |  |  |  |  |  |  |  |  |  |  |  |  |  |  |  | 0.1 ± 0.01 | IC50 (PLL [7]): 4 ± 1.35 mM; IC50 (PLL5 [8]): 1.7 ± 0.13 mM; IC50 (PLL4 [9]): 1.4 ± 0.04 mM; IC50 (PLL3 [11]; read-out: IC50): 1 ± 0.05 mM; Kd (PLL [4]; [17]): 3.6 ± 0.07 mM; Kd (PLL5 [5]; [22]): 4.2 ± 0.17 mM; Kd (PLL4 [6]; [26]): 4.9 ± 0.08 mM
5 | O=C[C@H](O)[C@@H](O)[C@@H](O)[C@H](O)CO [D-Gal, D-galactose] | 0.4 ± 0.03 | interacted | 3 ± 0.06 | 2.7 ± 0.14 | 2.5 ± 0.13 | 2.2 ± 0.06 | interacted | did not bind these sugars significantly | No int | No int | No int | No int | No int | No int | No int | No int | did not bind these sugars significantly | No int | No int | > 100 | Kd (PLL2 [2]; [30]): 0.5 ± 0.02 mM; Kd (PLL2 [2]; [31]): 0.3 ± 0.04 mM; Kd (PLL2 [2]; [29]): 0.3 ± 0.06 mM; IC50 (PLL2 [10]): not PLL2; IC50 (PLL3 [11]): inhibited only the binding of PLL3; KD (PLL4 [6]; [27]): No int; KD (PLL4 [6]; [28]): No int; interaction with the sugar in ITC (in words) (PLL4 [6]): did not bind these sugars significantly
6 | OC[C@H]1O[C@@H](O[C@H]2[C@H](O)[C@@H](O)C(O)O[C@@H]2CO)[C@H](O)[C@@H](O)[C@H]1O (mixture of isomers) [lactose] |  |  |  |  |  |  |  |  |  |  |  |  |  |  |  |  |  |  |  |  | glycan array binding (in words) (PLL4 [1]): recognized
7 | C[C@H](O)[C@@H](O)[C@@H](O)[C@H](O)C=O [L-Fuc, L-fucose] | 2.6 ± 0.08 |  | 3.6 ± 0.14 | 3.3 ± 0.12 | 3.1 ± 0.1 | 2.9 ± 0.1 |  |  | No int | No int | No int | No int |  |  |  |  |  |  |  | 1.2 ± 0.04 | IC50 (PLL [7]): 19.5 ± 7.5 mM; IC50 (PLL5 [8]): 3.6 ± 0.13 mM; IC50 (PLL4 [9]): 5.7 ± 0.21 mM; Kd (PLL2 [2]; [30]): 2.8 ± 0.07 mM; Kd (PLL2 [2]; [31]): 2.4 ± 0.08 mM; Kd (PLL2 [2]; [29]): 2.1 ± 0.1 mM; IC50 (PLL3 [11]; read-out: IC50): 2.5 ± 0.09 mM; Kd (PLL5 [5]; [21]): 16.6 ± 1.02 mM; Kd (PLL5 [5]; [22]): 16 ± 1.01 mM; Kd (PLL5 [5]; [23]): 15.4 ± 1 mM; Kd (PLL5 [5]; [24]): 14.7 ± 0.99 mM; Kd (PLL4 [6]; [25]): 31.2 ± 0.95 mM; Kd (PLL4 [6]; [26]): 29.9 ± 0.9 mM; Kd (PLL4 [6]; [27]): 28.6 ± 0.89 mM; Kd (PLL4 [6]; [28]): 27.2 ± 0.86 mM
